Our source for the IC50 values is patent US9169260B2 (MERCK SHARP & DOHME CORP., priority 2011, dated 2015).

Sequence of GST tagged IRAK-4 (Q9NWZ3 whole entry): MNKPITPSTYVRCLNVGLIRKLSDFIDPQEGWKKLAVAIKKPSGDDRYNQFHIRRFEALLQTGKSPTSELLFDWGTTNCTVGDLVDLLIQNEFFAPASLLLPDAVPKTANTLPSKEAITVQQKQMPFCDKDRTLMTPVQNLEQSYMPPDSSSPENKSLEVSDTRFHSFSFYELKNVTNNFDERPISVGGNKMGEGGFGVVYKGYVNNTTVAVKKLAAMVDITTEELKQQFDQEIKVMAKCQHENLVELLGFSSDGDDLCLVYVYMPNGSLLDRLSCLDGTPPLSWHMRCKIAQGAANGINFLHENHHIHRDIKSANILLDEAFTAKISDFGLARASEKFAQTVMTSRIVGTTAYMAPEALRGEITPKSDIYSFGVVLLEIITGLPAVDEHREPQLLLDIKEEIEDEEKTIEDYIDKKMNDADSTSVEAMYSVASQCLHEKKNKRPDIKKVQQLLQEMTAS

In the first assay the target is GST tagged IRAK-4 (Homo sapiens (Human), UniProt Q9NWZ3). Nature of the assay: IRAK-4 Kinase Assay (IMAP fluorescence polarization). The assay is classed as biochemical. Conditions: 100 μM ATP, 30 minutes at 25° C. On the procedure:
The kinase activity of IRAK-4 is determined by its ability to catalyze the phosphorylation of a fluorescent polypeptide substrate. The extent of phosphorylation is measured using the IMAP technology (Molecular Devices) where the phosphorylated fluorescent substrate binds to the large M(III)-based nanoparticles which reduces the rotational speed of the substrate and thus increases its fluorescent polarization (FP).
20 μl reaction mixture contains 10 mM TriHCl, pH 7.2, 0.5 nM GST tagged IRAK-4 (SignalChem), 100 nM fluorescent peptide substrate (RP7030, Molecular Devices), 100 μM ATP, 1 mM DTT, 1 mM MgCl2, and 0.01% Tween 20. The reaction is initiated by the addition of ATP. After incubation for 30 minutes at 25° C., 60 μl of Progressive IMAP Reagent (Molecular Devices) is added to stop the reaction. Change in RP7030's FP is determined by a FP reader (Analyst HT, LH, BioSystems).
Background: In fluorescence polarisation assays a small probe gives low polarisation when free and higher when bound to something large.
Regarding `O=C(Nc1cc(C2CCNCC2)nn1-c1nccs1)c1cnn2cccnc12` [Example 189, N-(3-(piperidin-4-yl)-1-(thiazol-2-yl)-1H-pyrazol-5-yl)pyrazolo[1,5-a]pyrimidine-3-carboxamide], the IC50 is under 0.1 µM.
As for `Cc1ccc(-n2nc(C3CCN(C4CCN(C5CC5)CC4)CC3)cc2NC(=O)c2cnn3cccnc23)nc1` [Example 267, N-[3-(1′-cyclopropyl-1,4′-bipiperidin-4-yl)-1-(5-methylpyridin-2-yl)-1H-pyrazol-5-yl]pyrazolo[1,5-a]pyrimidine-3-carboxamide], the IC50 was under 0.1 µM.
On the same count and under the same terms, under `COc1ccc(-n2nc(C3CCN(C(C)C)CC3)cc2NC(=O)c2cnn3cccnc23)cc1` [Example 47, N-(3-(1-isopropylpiperidin-4-yl)-1-(4-methoxyphenyl)-1H-pyrazol-5-yl)pyrazolo[1,5-a]pyrimidine-3-carboxamide] stands under 0.1 µM; under `[2H]C([2H])([2H])c1ccc(-n2nc(C3CCN(S(C)(=O)=O)CC3)cc2NC(=O)c2cnn3cccnc23)nc1` [Example 155, N-(1-(5-trideuteromethylpyridin-2-yl)-3-(1-(methylsulfonyl)piperidin-4-yl)-1H-pyrazol-5-yl)pyrazolo[1,5-a]pyrimidine-3-carboxamide], under 0.1 µM; under `Cc1ccc(-n2nc(C3CCNCC3)cc2NC(=O)c2cnn3cccnc23)cc1` [Example 7, N-(3-(piperidin-4-yl)-1-(p-tolyl)-1H-pyrazol-5-yl)pyrazolo[1,5-a]pyrimidine-3-carboxamide], under 0.1 µM.
Still for that read-out and setting: the value for `COc1ccc(-n2nc(C3CCN(S(C)(=O)=O)CC3)cc2NC(=O)c2cnn3cccnc23)cc1` [Example 16, N-(1-(4-methoxyphenyl)-3-(1-(methylsulfonyl)piperidin-4-yl)-1H-pyrazol-5-yl)pyrazolo[1,5-a]pyrimidine-3-carboxamide] was under 0.1 µM; that for `CNS(=O)(=O)c1ccc(-c2cc(NC(=O)c3cnn4cccnc34)n(-c3ccc(C4CC4)cc3F)n2)cc1` [Example 101, N-(1-(4-cyclopropyl-2-fluorophenyl)-3-(4-(N-methylsulfamoyl)phenyl)-1H-pyrazol-5-yl)pyrazolo[1,5-a]pyrimidine-3-carboxamide] was under 0.1 µM.
The same measure, in the same setting: under `CCC(C)N1CCC(c2cc(NC(=O)c3cnn4cccnc34)n(-c3ccc(C)cc3)n2)CC1` (stereo not drawn) [Example 209] stands under 0.1 µM; under `CNS(=O)(=O)c1ccc(-c2cc(NC(=O)c3cnn4cccnc34)n(-c3ccc(F)cc3F)n2)cc1` [Example 34, N-(1-(2,4-difluorophenyl)-3-(4-(N-methylsulfamoyl)phenyl)-1H-pyrazol-5-yl)pyrazolo[1,5-a]pyrimidine-3-carboxamide], under 0.1 µM.
On to `O=C(Nc1cc(C2CNC2)nn1-c1ccc(C2CC2)cc1F)c1cnn2cccnc12` [Example 87, N-(3-(azetidin-3-yl)-1-(4-cyclopropyl-2-fluorophenyl)-1H-pyrazol-5-yl)pyrazolo[1,5-a]pyrimidine-3-carboxamide], for which the IC50 was under 0.1 µM.
The same measure, in the same setting: under `Cc1ccc(-n2nc(-c3ccncc3)cc2NC(=O)c2cnn3cccnc23)cc1` [Example 125, N-(3-(pyridin-4-yl)-1-(p-tolyl)-1H-pyrazol-5-yl)pyrazolo[1,5-a]pyrimidine-3-carboxamide] stands under 0.1 µM; under `Cc1ccc(-n2nc(C3CN(Cc4cccnc4)C3)cc2NC(=O)c2cnn3cccnc23)cc1` [Example 314, N-{1-(4-methylphenyl)-3-[1-(pyridin-3-ylmethyl)azetidin-3-yl]-1H-pyrazol-5-yl}pyrazolo[1,5-a]pyrimidine-3-carboxamide], under 0.1 µM; under `Cc1ccc(-n2nc(C3CCN(C4CCC(NS(C)(=O)=O)CC4)CC3)cc2NC(=O)c2cnn3cccnc23)cc1` (stereo not drawn) [Example 252, N-[1-(4-methylphenyl)-3-(1-{4-[(methylsulfonyl)amino]cyclohexyl}piperidin-4-yl)-1H-pyrazol-5-yl]pyrazolo[1,5-a]pyrimidine-3-carboxamide], under 0.1 µM.
The molecule `Cc1ccc(-n2nc(-c3ccc(S(=O)(=O)N4CCN(C)CC4)cc3)cc2NC(=O)c2cnn3cccnc23)nc1` [Example 178, N-(3-(4-((4-methylpiperazin-1-yl)sulfonyl)phenyl)-1-(5-methylpyridin-2-yl)-1H-pyrazol-5-yl)pyrazolo[1,5-a]pyrimidine-3-carboxamide] yielded an IC50 of under 0.1 µM.

Staying with this assay, now noted: 100 μM ATP, 30 minutes at 25° C.; μM.
With `COc1ccc(-n2nc(-c3ccncc3)cc2NC(=O)c2cnn3cccnc23)cc1` [Example 127, N-(1-(4-methoxyphenyl)-3-(pyridin-4-yl)-1H-pyrazol-5-yl)pyrazolo[1,5-a]pyrimidine-3-carboxamide], the IC50 was under 1 µM.
On the same count and under the same terms, the value for `Cc1ccc(-n2nc(C3CN(Cc4ccccn4)C3)cc2NC(=O)c2cnn3cccnc23)cc1` [Example 308, N-{1-(4-methylphenyl)-3-[1-(pyridin-2-ylmethyl)azetidin-3-yl]-1H-pyrazol-5-yl}pyrazolo[1,5-a]pyrimidine-3-carboxamide] was under 1 µM.
Same read-out and setting: the value for `COc1cccc(S(=O)(=O)N2CCC(c3cc(NC(=O)c4cnn5cccnc45)n(-c4ccc(C)cc4)n3)CC2)c1` [Example 385, N-[3-{1-[(3-methoxyphenyl)sulfonyl]piperidin-4-yl}-1-(4-methylphenyl)-1H-pyrazol-5-yl]pyrazolo[1,5-a]pyrimidine-3-carboxamide] was over 1 µM; that for `O=C(Nc1cc(C2CCNCC2)nn1-c1ccc(OC(F)(F)F)cc1)c1cnn2cccnc12` [Example 13, N-(3-(piperidin-4-yl)-1-(4-(trifluoromethoxy)phenyl)-1H-pyrazol-5-yl)pyrazolo[1,5-a]pyrimidine-3-carboxamide] was under 1 µM.
In the case of `COc1cc(-c2cc(NC(=O)c3cnn4cccnc34)n(-c3ccc(C)cc3)n2)ccn1` [Example 129, N-(3-(2-methoxypyridin-4-yl)-1-(p-tolyl)-1H-pyrazol-5-yl)pyrazolo[1,5-a]pyrimidine-3-carboxamide], the IC50 is under 1 µM.
The same measure, in the same setting: under `CS(=O)(=O)N1CCC(c2cc(NC(=O)c3cnn4cccnc34)n(-c3ccc(Br)cc3F)n2)CC1` [Example 71, N-(1-(4-bromo-2-fluorophenyl)-3-(1-(methylsulfonyl)piperidin-4-yl)-1H-pyrazol-5-yl)pyrazolo[1,5-a]pyrimidine-3-carboxamide] stands under 1 µM.
On the same count and under the same terms, the value for `Cc1ccc(-n2nc(C3CCN(S(=O)(=O)c4c(Cl)cccc4Cl)CC3)cc2NC(=O)c2cnn3cccnc23)cc1` [Example 390, N-[3-{1-[(2,6-dichlorophenyl)sulfonyl]piperidin-4-yl}-1-(4-methylphenyl)-1H-pyrazol-5-yl]pyrazolo[1,5-a]pyrimidine-3-carboxamide] was over 1 µM; that for `Cc1ccc(-n2nc(C3CCN(C4CN(C(=O)NC(C)(C)C)C4)CC3)cc2NC(=O)c2cnn3cccnc23)cc1` [Example 236, N-[3-{1-[1-(tert-butylcarbamoyl)azetidin-3-yl]piperidin-4-yl]-1-(4-methylphenyl)-1H-pyrazol-5-yl}pyrazolo[1,5-a]pyrimidine-3-carboxamide] was under 1 µM; that for `Cc1ccc(-n2nc(-c3ccc(S(C)(=O)=O)nc3)cc2NC(=O)c2cnn3cccnc23)cc1` [Example 351, N-{1-(4-methylphenyl)-3-[6-(methylsulfonyl)pyridin-3-yl]-1H-pyrazol-5-yl}pyrazolo[1,5-a]pyrimidine-3-carboxamide] was under 1 µM.
On the same count and under the same terms, the value for `Cc1ccc(-n2nc(C3CN(S(C)(=O)=O)C3)cc2NC(=O)c2cnn3cccnc23)cc1` [Example 83, N-(3-(1-(methylsulfonyl)azetidin-3-yl)-1-(p-tolyl)-1H-pyrazol-5-yl)pyrazolo[1,5-a]pyrimidine-3-carboxamide] was under 1 µM; that for `COC(=O)N1CC(N2CCC(c3cc(NC(=O)c4cnn5cccnc45)n(-c4ccc(C)cc4)n3)CC2)C1` [Example 238, methyl 3-(4-{1′-(4-methylphenyl)-5-[(pyrazolo[1,5-a]pyrimidin-3-ylcarbonyl)amino]-1H-pyrazol-3-yl}piperidin-1-yl)azetidine-1-carboxylate] was under 1 µM; that for `CC(C)N1CCC(c2cc(NC(=O)c3cnn4cccnc34)n(-c3ncc[nH]3)n2)CC1` [Example 187, N-(1-(1H-imidazol-2-yl)-3-(1-isopropylpiperidin-4-yl)-1H-pyrazol-5-yl)pyrazolo[1,5-a]pyrimidine-3-carboxamide] was under 1 µM.
The molecule `Cc1ccc(-n2nc(C3CCN(Cc4ccncc4)CC3)cc2NC(=O)c2cnn3cccnc23)cc1` [Example 224, N-(3-(1-(pyridin-4-ylmethyl)piperidin-4-yl)-1-(p-tolyl)-1H-pyrazol-5-yl)pyrazolo[1,5-a]pyrimidine-3-carboxamide] had a 50% inhibitory concentration (IC50) of under 1 µM.
Turning to `CS(=O)(=O)N1CCC(c2cc(NC(=O)c3cnn4cccnc34)n(-c3ccc(F)cc3F)n2)CC1` [Example 28], the IC50 is under 1 µM.
Still for that read-out and setting: the value for `CON=C1CCC(c2cc(NC(=O)c3cnn4cccnc34)n(-c3ccc(C)cc3)n2)CC1` (stereo not drawn) [Example 3, N-(3-(4-(methoxyimino)cyclohexyl)-1-(p-tolyl)-1H-pyrazol-5-yl)pyrazolo[1,5-a]pyrimidine-3-carboxamide] was under 1 µM; that for `Cc1ccc(-n2nc(C3CCC(O)CC3)cc2NC(=O)c2cnn3cccnc23)cc1` (stereo not drawn) [Example 6, N-(3-(4-hydroxycyclohexyl)-1-(p-tolyl)-1H-pyrazol-5-yl)pyrazolo[1,5-a]pyrimidine-3-carboxamide] was under 1 µM.

In general, IC50 refers to the concentration that gives 50% inhibition.
